Results from patent publication US9714231B2, “Pyrrolidine GPR40 modulators” (BRISTOL-MYERS SQUIBB COMPANY, priority 2012, dated 2017).
Where a name gives a salt, the structure may show the parent alone.

Target: human GPR40 (Homo sapiens, UniProt O14842)
Assay: FDSS-based intracellular calcium assay (Human GRP40 in vitro assay)
Format: cell-based
Design: 3xFLAG; expressed in transfected cells
Conditions: cells expressing GPR40, intracellular Ca2+ response, FDSS reader; read-out: hGPR40 EC50
Outline: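 GPR40-expressing cells, plated overnight in serum-free phenol red-free DMEM, loaded with Fluo-3 in HBSS with 1.7 mM probenecid for 30 min at 37° C. Compounds in DMSO, diluted in assay buffer, added as 3× solutions; intracellular Ca^2+ response read on FDSS.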

Sequence of human GPR40 (O14842 whole entry): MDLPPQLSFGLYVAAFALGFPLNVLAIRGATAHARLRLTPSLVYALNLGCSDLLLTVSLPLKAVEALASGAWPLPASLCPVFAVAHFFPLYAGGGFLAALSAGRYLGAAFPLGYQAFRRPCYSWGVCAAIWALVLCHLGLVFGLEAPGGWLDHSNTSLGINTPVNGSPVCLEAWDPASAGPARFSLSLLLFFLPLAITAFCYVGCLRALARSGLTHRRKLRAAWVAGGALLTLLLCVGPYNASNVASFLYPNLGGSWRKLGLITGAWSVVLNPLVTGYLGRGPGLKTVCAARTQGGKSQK

Compound	EC50 [nM]
CCOc1ccc(F)c(N2CCC(Oc3ccc(N4C[C@H](Oc5cccc(C(F)(F)F)c5)C[C@@H]4CC(=O)O)cc3)CC2)c1 [Example 71, 2-((2R,4R)-1-(4-(1-(5-Ethoxy-2-fluorophenyl)piperidin-4-yloxy)phenyl)-4-(3-(trifluoromethyl)phenoxy)pyrrolidin-2-yl)acetic acid]	250
CCOc1ccc(F)c(N2CCC(Oc3ccc(N4C[C@H](Oc5cccc(C)c5)C[C@@H]4CC(=O)O)cc3)CC2)c1 [Example 72, 2-((2R,4R)-1-(4-(1-(5-Ethoxy-2-fluorophenyl)piperidin-4-yloxy)phenyl)-4-(m-tolyloxy)pyrrolidin-2-yl)acetic acid]	170
CCOc1ccc(F)c(N2CCC(Oc3ccc(N4C[C@H](Oc5ccc(Cl)cc5)C[C@@H]4CC(=O)O)cc3)CC2)c1 [Example 73, 2-((2R,4R)-4-(4-Chlorophenoxy)-1-(4-(1-(5-ethoxy-2-fluorophenyl)piperidin-4-yloxy)phenyl)pyrrolidin-2-yl)acetic acid]	1600
CCOc1ccc(F)c(N2CCC(Oc3ccc(N4C[C@H](Oc5ccc(C)cc5)C[C@@H]4CC(=O)O)cc3)CC2)c1 [Example 74, 2-((2R,4R)-1-(4-(1-(5-Ethoxy-2-fluorophenyl)piperidin-4-yloxy)phenyl)-4-(p-tolyloxy)pyrrolidin-2-yl)acetic acid]	1200
CCOc1ccc(F)c(N2CCC(Oc3ccc(N4C[C@H](Oc5ccccn5)C[C@@H]4CC(=O)O)cc3)CC2)c1 [Example 75, 2-((2R,4R)-1-(4-(1-(5-Ethoxy-2-fluorophenyl)piperidin-4-yloxy)phenyl)-4-(pyridin-2-yloxy)pyrrolidin-2-yl)acetic acid, TFA]	420

Next, values leading:

EC50 [nM]	Compound
860	CCOc1ccc(F)c(N2CCC(Oc3ccc(N4C[C@H](Oc5cccnc5)C[C@@H]4CC(=O)O)cc3)CC2)c1 [Example 76, 2-((2R,4R)-1-(4-(1-(5-Ethoxy-2-fluorophenyl)piperidin-4-yloxy)phenyl)-4-(pyridin-3-yloxy)pyrrolidin-2-yl)acetic acid]
140	CCOc1ccc(F)c(N2CCC(Oc3ccc(N4C[C@H](Oc5cccc(OC(F)(F)F)c5)C[C@@H]4CC(=O)O)cc3)CC2)c1 [Example 77, 2-((2R,4R)-1-(4-(1-(5-Ethoxy-2-fluorophenyl)piperidin-4-yloxy)phenyl)-4-(3-(trifluoromethoxy)phenoxy)pyrrolidin-2-yl)acetic acid]
1600	CCOc1ccc(F)c(N2CCC(Oc3ccc(N4C[C@H](Oc5ncccn5)C[C@@H]4CC(=O)O)cc3)CC2)c1 [Example 78, 2-((2R,4R)-1-(4-(1-(5-Ethoxy-2-fluorophenyl)piperidin-4-yloxy)phenyl)-4-(pyrimidin-2-yloxy)pyrrolidin-2-yl)acetic acid, TFA]
740	CCOc1ccc(F)c(N2CCC(Oc3ccc(N4C[C@H](Oc5ccccc5Cl)C[C@@H]4CC(=O)O)cc3)CC2)c1 [Example 79, 2-((2R,4R)-4-(2-Chlorophenoxy)-1-(4-(1-(5-ethoxy-2-fluorophenyl)piperidin-4-yloxy)phenyl)pyrrolidin-2-yl)acetic acid]
4600	CCOc1ccc(F)c(N2CCC(Oc3ccc(N4C[C@H](N(C)S(=O)(=O)c5ccccc5)C[C@@H]4CC(=O)O)cc3)CC2)c1 [Example 80, 2-((2R,4R)-1-(4-(1-(5-Ethoxy-2-fluorophenyl)piperidin-4-yloxy)phenyl)-4-(N-methylphenylsulfonamido)pyrrolidin-2-yl)acetic acid, TFA]
1000	CCOc1ccc(F)c(N2CCC(Oc3ccc(N4C[C@H](n5ccnn5)C[C@@H]4CC(=O)O)cc3)CC2)c1 [Example 81, 2-((2R,4R)-1-(4-(1-(5-Ethoxy-2-fluorophenyl)piperidin-4-yloxy)phenyl)-4-(1H-1,2,3-triazol-1-yl)pyrrolidin-2-yl)acetic acid]
310	COc1ccc(C2CCC2)c(N2CCC(Oc3ccc(N4C[C@H](OC)C[C@@H]4CC(=O)O)cc3)CC2)c1 [Example 82, 2-((2R,4R)-1-(4-((1-(2-Cyclobutyl-5-methoxyphenyl)piperidin-4-yl)oxy)phenyl)-4-methoxypyrrolidin-2-yl)acetic acid, HCl]
